In ChEMBL document CHEMBL1201862, “PubChem BioAssay data set” (2004):
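In this assay, cells in 96-well plates receive the compound at five concentrations for 48 hours. Endpoints are linearly interpolated between the surrounding concentrations. The concentration for 50% growth inhibition is given as GI50.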 The source made the active and inactive calls. Cut-off read from the data, not from the text of the source: active = GI50 up to about 1.1 µM and inactive = higher.

Tests used:
Experiment in all cases: DTP human tumour cell line panel, 48 h
NCI-H522 = test system: NCI-H522
SK-MEL-28 = test system: SK-MEL-28
SK-MEL-5 = test system: SK-MEL-5
MDA-MB-435 = test system: MDA-MB-435
BT-549 = test system: BT-549
MDA-N = test system: MDA-N
HOP-62 = test system: HOP-62
NCI-H460 = test system: NCI-H460
CCRF-CEM = test system: CCRF-CEM
IGROV-1 = test system: IGROV-1
NCI-H23 = test system: NCI-H23
A498 = test system: A498
HCT-116 = test system: HCT-116
A549 = test system: A549
M14 = test system: M14
SNB-19 = test system: SNB-19
OVCAR-5 = test system: OVCAR-5
T47D = test system: T47D
SK-OV-3 = test system: SK-OV-3

Measured: GI50

CC(=O)ON(C(C)=O)c1ccc(-c2nc3ccccc3s2)cc1C
inactive: NCI-H522 38.5 µM | SK-MEL-28 76.4 µM | SK-MEL-5 21.5 µM | MDA-MB-435 60.3 µM | BT-549 70.5 µM | MDA-N 75.5 µM | HOP-62 21.2 µM | NCI-H460 21.3 µM | CCRF-CEM 23.7 µM | IGROV-1 13 µM | NCI-H23 52.7 µM | A498 5.11 µM | HCT-116 23.4 µM | A549 28.7 µM | M14 59 µM | SNB-19 50.1 µM | OVCAR-5 4.28 µM

c1ccc(CSP234N5CCN2CCN3CCN4CC5)c(CSP234N5CCN2CCN3CCN4CC5)c1
inactive: T47D > 100 µM | NCI-H522 46.6 µM | SK-MEL-28 > 100 µM | SK-MEL-5 55 µM | MDA-MB-435 > 100 µM | BT-549 > 100 µM | MDA-N 13.4 µM | HOP-62 > 100 µM | NCI-H460 > 100 µM | CCRF-CEM 45.4 µM | IGROV-1 > 100 µM | NCI-H23 > 100 µM | HCT-116 > 100 µM | A549 > 100 µM | M14 31.5 µM | SNB-19 > 100 µM | OVCAR-5 > 100 µM

CC1=CC(C)(C)Nc2ccc(CSc3ccccc3)cc21
inactive: NCI-H522 16.8 µM | SK-OV-3 31.3 µM | SK-MEL-28 37.8 µM | SK-MEL-5 17.1 µM | MDA-MB-435 25.3 µM | BT-549 59.2 µM | MDA-N 22 µM | HOP-62 29.7 µM | NCI-H460 24.9 µM | IGROV-1 52.1 µM | NCI-H23 32.6 µM | A498 24.1 µM | HCT-116 26.4 µM | A549 21.1 µM | M14 26.6 µM | SNB-19 37.7 µM | OVCAR-5 14.9 µM

CN1C(NCCO)=NS(=O)(=O)c2ccccc21
inactive: T47D > 100 µM | NCI-H522 > 100 µM | SK-OV-3 > 100 µM | SK-MEL-28 > 100 µM | SK-MEL-5 > 100 µM | MDA-MB-435 > 100 µM | BT-549 > 100 µM | HOP-62 > 100 µM | NCI-H460 > 100 µM | CCRF-CEM > 100 µM | IGROV-1 > 100 µM | NCI-H23 > 100 µM | A498 > 100 µM | HCT-116 > 100 µM | A549 > 100 µM | M14 > 100 µM | SNB-19 > 100 µM | OVCAR-5 > 100 µM

COc1ccc2c(c1)N=C1CSC(c3ccccc3Cl)N1C2 (configuration not stated)
inactive: T47D 19.5 µM | NCI-H522 15.1 µM | SK-OV-3 15.1 µM | SK-MEL-28 17.6 µM | SK-MEL-5 17.1 µM | MDA-MB-435 11.5 µM | BT-549 43.2 µM | MDA-N 6.17 µM | HOP-62 14.5 µM | NCI-H460 3.12 µM | NCI-H23 17.9 µM | HCT-116 3.92 µM | A549 10.4 µM | M14 13 µM | SNB-19 19 µM | OVCAR-5 8.97 µM

C/C(=N/NC(=O)c1ccncc1)c1ccc(NC(=O)C(=O)Nn2c(S)nc3ccccc3c2=O)cc1
inactive: T47D > 100 µM | NCI-H522 > 100 µM | SK-OV-3 > 100 µM | SK-MEL-28 > 100 µM | SK-MEL-5 > 100 µM | MDA-MB-435 > 100 µM | BT-549 > 100 µM | HOP-62 > 100 µM | NCI-H460 > 100 µM | CCRF-CEM > 100 µM | IGROV-1 37.2 µM | NCI-H23 > 100 µM | A498 > 100 µM | HCT-116 > 100 µM | A549 > 100 µM | M14 > 100 µM | SNB-19 > 100 µM | OVCAR-5 > 100 µM

CC(C)(C)NC(NC(C)(C)C)=C(C(Cl)=C(Cl)Cl)[N+](=O)[O-]
inactive: T47D > 100 µM | SK-OV-3 > 100 µM | SK-MEL-28 > 100 µM | SK-MEL-5 > 100 µM | BT-549 > 100 µM | MDA-N > 100 µM | HOP-62 > 100 µM | NCI-H460 > 100 µM | CCRF-CEM > 100 µM | IGROV-1 > 100 µM | NCI-H23 > 100 µM | A498 > 100 µM | HCT-116 > 100 µM | A549 > 100 µM | M14 > 100 µM | SNB-19 10.1 µM | OVCAR-5 > 100 µM

Cc1ccc(S(=O)(=O)Nn2c(S)c(C#N)c(-c3ccc(Cl)cc3)c(C#N)c2=O)cc1
inactive: NCI-H522 16.6 µM | SK-OV-3 61 µM | SK-MEL-28 31.2 µM | SK-MEL-5 16.4 µM | MDA-MB-435 27.1 µM | BT-549 17.3 µM | NCI-H460 17 µM | CCRF-CEM 7.93 µM | IGROV-1 20.6 µM | NCI-H23 30 µM | A498 26.5 µM | HCT-116 28.4 µM | A549 43.7 µM | M14 38.1 µM | SNB-19 35.4 µM | OVCAR-5 50.1 µM

Cn1c2ccccc2n2c3ncccc3c(=O)c(C#N)c12
inactive: T47D 15.2 µM | NCI-H522 9.02 µM | SK-OV-3 17.3 µM | SK-MEL-28 44.2 µM | SK-MEL-5 4.45 µM | MDA-MB-435 26.7 µM | BT-549 16.5 µM | HOP-62 5.18 µM | NCI-H460 2.46 µM | CCRF-CEM 4.07 µM | IGROV-1 5.32 µM | NCI-H23 10.2 µM | A498 10.4 µM | HCT-116 4.81 µM | A549 5.2 µM | M14 32.3 µM | SNB-19 8.28 µM | OVCAR-5 24.5 µM

O=C(Nc1ccc(N2C(=O)CSC2c2cccs2)cc1)c1ccc(N2C(=O)CSC2c2cccs2)cc1 (configuration not stated)
inactive: T47D 46.5 µM | NCI-H522 36.1 µM | SK-OV-3 > 100 µM | SK-MEL-28 > 100 µM | SK-MEL-5 > 100 µM | MDA-MB-435 83.4 µM | BT-549 > 100 µM | MDA-N > 100 µM | HOP-62 95.3 µM | NCI-H460 > 100 µM | CCRF-CEM 44.2 µM | IGROV-1 > 100 µM | NCI-H23 24.8 µM | HCT-116 > 100 µM | A549 37.2 µM | M14 > 100 µM | SNB-19 49 µM | OVCAR-5 > 100 µM

Cc1ccnc(NC(=S)Nc2ccc([N+](=O)[O-])cc2)c1
inactive: T47D > 100 µM | SK-OV-3 37.9 µM | SK-MEL-28 > 100 µM | SK-MEL-5 > 100 µM | MDA-MB-435 > 100 µM | BT-549 > 100 µM | HOP-62 78 µM | NCI-H460 80.5 µM | CCRF-CEM > 100 µM | IGROV-1 46.2 µM | NCI-H23 > 100 µM | HCT-116 > 100 µM | M14 > 100 µM | SNB-19 > 100 µM

CC12CC(=O)Nc3ccccc3N1C(c1ccccc1)=NO2 (configuration not stated)
inactive: NCI-H522 > 100 µM | SK-OV-3 > 100 µM | SK-MEL-5 > 100 µM | MDA-MB-435 > 100 µM | BT-549 > 100 µM | MDA-N > 100 µM | HOP-62 > 100 µM | NCI-H460 > 100 µM | CCRF-CEM > 100 µM | IGROV-1 > 100 µM | NCI-H23 > 100 µM | A498 > 100 µM | HCT-116 > 100 µM | A549 > 100 µM | M14 > 100 µM | SNB-19 > 100 µM | OVCAR-5 > 100 µM

OCc1ccc2c(c1)CC1(Cc3ccccc3C1)C2
inactive: T47D 26.6 µM | NCI-H522 22.5 µM | SK-OV-3 25.6 µM | SK-MEL-28 19.3 µM | SK-MEL-5 11.5 µM | BT-549 3.77 µM | MDA-N 4.86 µM | HOP-62 25.6 µM | NCI-H460 19.6 µM | CCRF-CEM 4.39 µM | IGROV-1 > 10 µM | NCI-H23 33 µM | A498 26.7 µM | HCT-116 14.3 µM | A549 20.6 µM

OCC1OC(n2nc(-c3ccccc3)nc2-c2cnccn2)C(O)C1O (configuration not stated)
inactive: T47D > 100 µM | NCI-H522 > 100 µM | SK-OV-3 > 100 µM | SK-MEL-28 > 100 µM | SK-MEL-5 > 100 µM | MDA-MB-435 > 100 µM | BT-549 > 100 µM | MDA-N > 100 µM | HOP-62 > 100 µM | NCI-H460 > 100 µM | CCRF-CEM > 100 µM | IGROV-1 > 100 µM | NCI-H23 > 100 µM | HCT-116 > 100 µM | A549 > 100 µM | M14 > 100 µM | SNB-19 > 100 µM | OVCAR-5 > 100 µM

CCCCCCCCCCCCCCCC(=O)ON1C(=S)NC(C)(c2ccccc2)C1=S (configuration not stated)
inactive: T47D > 100 µM | SK-OV-3 > 100 µM | SK-MEL-5 > 100 µM | BT-549 > 100 µM | MDA-N > 100 µM | HOP-62 > 100 µM | NCI-H460 > 100 µM | CCRF-CEM 36.4 µM | IGROV-1 79.3 µM | NCI-H23 > 100 µM | A498 > 100 µM | HCT-116 > 100 µM | A549 > 100 µM | M14 30.3 µM | SNB-19 > 100 µM | OVCAR-5 > 100 µM

CN1C(=O)C2CCC(=O)N2c2cccnc21 (configuration not stated)
inactive: T47D > 100 µM | NCI-H522 > 100 µM | SK-MEL-28 > 100 µM | SK-MEL-5 > 100 µM | MDA-MB-435 > 100 µM | BT-549 > 100 µM | MDA-N > 100 µM | HOP-62 > 100 µM | NCI-H460 > 100 µM | CCRF-CEM > 100 µM | IGROV-1 > 100 µM | NCI-H23 > 100 µM | HCT-116 > 100 µM | A549 > 100 µM | SNB-19 > 100 µM
